Laboratory results taken from patent US8722849B2, “Polypeptides” (Novo Nordisk A/S, priority 2011, dated 2014).
Converted amounts (≈) assume the structure as drawn. Like-named read-outs stand apart in the source and are kept apart here. Starred links: 1 amine or outer side, 2 acyl side, 3 side chain; linkers in the order of their positions; H or OH if unused. Positions of bridges follow the written chain, without caps; N, C: chain ends. Residues, ends and D or L forms follow the SMILES beside them. *: point of attachment. C20 diacid = O=C(O)CCCCCCCCCCCCCCCCCCC(=O)*; γGlu = O=C(O)[C@H](CCC(=O)[*:2])N[*:1]

Columns and labels:
[1] = biological target: T1, human calcitonin receptor (Homo sapiens, UniProt P30988); assay: Assay (II)a functional CRE-luciferase assay, human calcitonin receptor; assay type: cell-based; settings: Table 7; human calcitonin (CTa) receptor
T1 construct: expressed in transfected cells; host or cells: BHK570
T1 sequence (P30988 25-474): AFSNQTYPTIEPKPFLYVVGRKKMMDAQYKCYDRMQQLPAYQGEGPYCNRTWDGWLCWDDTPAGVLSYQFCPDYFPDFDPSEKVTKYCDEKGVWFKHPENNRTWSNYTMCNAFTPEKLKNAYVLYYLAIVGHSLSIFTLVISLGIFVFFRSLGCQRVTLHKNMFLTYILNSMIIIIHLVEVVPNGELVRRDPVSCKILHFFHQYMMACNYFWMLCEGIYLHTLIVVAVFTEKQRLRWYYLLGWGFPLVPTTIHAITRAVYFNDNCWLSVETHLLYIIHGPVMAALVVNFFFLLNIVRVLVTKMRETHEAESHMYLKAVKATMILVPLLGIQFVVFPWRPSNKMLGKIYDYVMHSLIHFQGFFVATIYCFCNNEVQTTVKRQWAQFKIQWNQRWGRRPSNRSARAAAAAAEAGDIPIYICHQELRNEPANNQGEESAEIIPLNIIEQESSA

[2] = biological target: T2, human amylin receptor (amylin 3(a) receptor: human calcitonin receptor + RAMP-3) (Homo sapiens, UniProt O60896+P30988); assay: Assay (II)a functional CRE-luciferase assay, human amylin receptor; assay type: cell-based
T2 construct: expressed in transfected cells; host or cells: BHK570
T2 sequence (P30988 25-474): T1 sequence (P30988 25-474)
T2 sequence (O60896 24-148 partner): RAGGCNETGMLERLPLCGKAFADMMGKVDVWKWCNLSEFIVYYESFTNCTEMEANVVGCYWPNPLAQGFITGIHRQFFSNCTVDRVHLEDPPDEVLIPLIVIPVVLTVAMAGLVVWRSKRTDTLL

[3] = Assay (IV) determination of solubility; assay type: physicochemical
Method in brief: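 Solubility is measured across pH 3.0–8.0 by mixing a ~500 nmol/ml aqueous polypeptide stock 1:1 with 100 mM glycylglycine or bistrispropane buffers. Samples stand 18 hours at room temperature, then are centrifuged and the soluble concentration is determined by HPLC.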

[4] = Assay (III) ThT fibrillation assay for physical stability; assay type: physicochemical
Method in brief: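 Freshly prepared formulations, pH-adjusted, with 1 μM ThT; four or eight replicates incubated at 37 °C under 960 rpm orbital shaking. Fluorescence (ex 444/em 485 nm) read every 20 min; […]. Peptide concentration measured by RP-HPLC before and after the run.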

[5] = Table 2, BHK amylin 3(a)-receptor/CRE-luc cells
[6] = bistrispropane buffer, pH 6, pH 6.0, read-out: Solubility pH 6.0
[7] = bistrispropane buffer, pH 6.5, pH 6.5, read-out: Solubility pH 6.5
[8] = bistrispropane buffer, pH 7, pH 7.0, read-out: Solubility pH 7.0
[9] = bistrispropane buffer, pH 7.5, pH 7.5, read-out: Solubility pH 7.5
[10] = bistrispropane buffer, pH 8, pH 8.0, read-out: Solubility pH 8.0
[11] = glycylglycine buffer, pH 3, pH 3.0, read-out: Solubility pH 3.0
[12] = glycylglycine buffer, pH 4, pH 4.0, 18 hours at room temperature, Table 2, read-out: Solubility pH 4.0
[13] = glycylglycine buffer, pH 4, pH 4.0, read-out: Solubility pH 4.0
[14] = glycylglycine buffer, pH 5, pH 5.0, read-out: Solubility pH 5.0
[15] = bistrispropane buffer, pH 7, pH 7.0, 18 hours at room temperature, Table 3, read-out: Solubility pH 7.0

| EC50 [1] [nM] | EC50 [2, 5] [nM] | solubility at 18 h [3, 6] [µM] | solubility at 18 h [3, 7] [µM] | solubility at 18 h [3, 8] [µM] | solubility at 18 h [3, 9] [µM] | solubility at 18 h [3, 10] [µM] | solubility at 18 h [3, 11] [µM] | solubility at 18 h [3, 12] [µM] | solubility at 18 h [3, 13] [µM] | solubility at 18 h [3, 14] [µM] | ThT pH 4.0 lag time ([4]; ThT fibrillation assay) [h] | ThT pH 4.0 lag time (h) ([4]; ThT fibrillation assay) | EC50 ([2]; Table 6, human amylin receptor) [nM] | solubility at 18 h [3, 15] [µM] | solubility at 18 h ([3]; bistrispropane buffer, pH 7, pH 7.0, Table 8, read-out: Solubility pH 7.0) [µM] | solubility at 18 h ([3]; bistrispropane buffer, pH 7, pH 7.0, Table 9, read-out: Solubility pH 7.0) [µM] | solubility at 18 h ([3]; bistrispropane buffer, pH 7.5, pH 7.5, Table 9, read-out: Solubility pH 7.5) [µM] | ThT pH 4.0 lag time ([4]; Table 8) [h] | ThT pH 4.0 lag time ([4]; Table 9) [h] | Compound |
| --- | --- | --- | --- | --- | --- | --- | --- | --- | --- | --- | --- | --- | --- | --- | --- | --- | --- | --- | --- | --- |
| 0.153 | 0.133 | 185 (≈ 845 µg/mL) | 64 (≈ 292 µg/mL) | 22 (≈ 100 µg/mL) | 47 (≈ 215 µg/mL) | 109 (≈ 498 µg/mL) | > 200 | > 200 | > 200 | > 200 | >45 | >45 |  |  |  |  |  |  |  | CC[C@H](C)[C@H](NC(=O)[C@@H]1CCCN1C(=O)CNC(=O)[C@H](Cc1ccccc1)NC(=O)[C@H](CC(N)=O)NC(=O)[C@H](CC(N)=O)NC(=O)[C@H](CO)NC(=O)[C@H](CO)NC(=O)[C@H](Cc1c[nH]cn1)NC(=O)[C@H](Cc1c[nH]cn1)NC(=O)[C@H](CC(C)C)NC(=O)[C@H](Cc1ccccc1)NC(=O)[C@H](CCC(=O)O)NC(=O)[C@H](C)NC(=O)[C@H](CC(C)C)NC(=O)[C@H](CCCNC(=N)N)NC(=O)[C@H](CCC(N)=O)NC(=O)[C@@H](NC(=O)[C@H](C)NC(=O)[C@@H]1CSSC[C@H](NC(=O)[C@H](CCCCN)NC(=O)[C@H](CO)NC(=O)CC[C@H](NC(=O)CCCCCCCCCCCCCCCCCCC(=O)O)C(=O)O)C(=O)N[C@@H](CC(N)=O)C(=O)N[C@@H]([C@@H](C)O)C(=O)N[C@@H](C)C(=O)N[C@@H]([C@@H](C)O)C(=O)N1)[C@@H](C)O)C(=O)N[C@@H](CC(C)C)C(=O)N1CCC[C@H]1C(=O)N1CCC[C@H]1C(=O)N[C@H](C(=O)N[C@@H](CC(N)=O)C(=O)N[C@H](C(=O)NCC(=O)N[C@@H](CO)C(=O)N[C@@H](Cc1c[nH]cn1)C(=O)N[C@H](C(=O)N[C@@H](Cc1ccc(O)cc1)C(N)=O)[C@@H](C)O)C(C)C)[C@@H](C)O [Example 85, N-alpha-[(S)-4-Carboxy-4-(19-carboxynonadecanoylamino)butyryl]-Ser-[Glu14,His17,His35]-pramlintide] ({C20 diacid-γGlu}-SKCNTATCATQRLAEFLHHSSNNFGPILPPTNVGSHTY-NH2; disulfide 3-8 (inferred); C-terminus assumed) |
| 0.075 |  | > 200 | > 200 | 199 (≈ 880 µg/mL) | > 200 | > 200 | > 200 |  | > 200 | > 200 |  | 1.3 | 0.0525 |  |  |  |  |  |  | CC[C@H](C)[C@H](NC(=O)[C@@H]1CCCN1C(=O)CNC(=O)[C@H](Cc1ccccc1)NC(=O)[C@H](CC(N)=O)NC(=O)[C@H](CC(N)=O)NC(=O)[C@H](CO)NC(=O)[C@H](CO)NC(=O)[C@H](Cc1c[nH]cn1)NC(=O)[C@@H](NC(=O)[C@H](CC(C)C)NC(=O)[C@H](Cc1ccccc1)NC(=O)[C@H](CC(N)=O)NC(=O)[C@H](C)NC(=O)[C@H](CC(C)C)NC(=O)[C@H](CCCNC(=N)N)NC(=O)[C@H](CCC(N)=O)NC(=O)[C@@H](NC(=O)[C@H](C)NC(=O)[C@@H]1CSSC[C@H](NC(=O)[C@H](CCCNC(=N)N)NC(=O)CNC(=O)CC[C@H](NC(=O)CCCCCCCCCCCCCCCCCCC(=O)O)C(=O)O)C(=O)N[C@@H](CC(N)=O)C(=O)N[C@@H]([C@@H](C)O)C(=O)N[C@@H](C)C(=O)N[C@@H]([C@@H](C)O)C(=O)N1)[C@@H](C)O)C(C)C)C(=O)N[C@@H](CC(C)C)C(=O)N1CCC[C@H]1C(=O)N1CCC[C@H]1C(=O)N[C@H](C(=O)N[C@@H](CC(N)=O)C(=O)N[C@H](C(=O)NCC(=O)N[C@@H](CO)C(=O)N[C@@H](CC(N)=O)C(=O)N[C@H](C(=O)N1CCC[C@H]1C(N)=O)[C@@H](C)O)C(C)C)[C@@H](C)O [Example 103, N-alpha-[(S)-4-Carboxy-4-(19-carboxynonadecanoylamino)butyryl]-Gly-[Arg1,Pro37]-pramlintide] ({C20 diacid-γGlu}-GRCNTATCATQRLANFLVHSSNNFGPILPPTNVGSNTP-NH2; disulfide 3-8 (inferred)) |
| 0.0525 | 0.055 | > 200 | > 200 | > 200 | > 200 | > 200 | > 200 | > 200 | > 200 | > 200 |  | 5 |  | > 200 |  |  |  |  |  | CC[C@H](C)[C@H](NC(=O)[C@@H]1CCCN1C(=O)CNC(=O)[C@H](Cc1ccccc1)NC(=O)[C@H](CC(N)=O)NC(=O)[C@H](CC(N)=O)NC(=O)[C@H](CO)NC(=O)[C@H](CO)NC(=O)[C@H](Cc1c[nH]cn1)NC(=O)[C@@H](NC(=O)[C@H](CC(C)C)NC(=O)[C@H](Cc1ccccc1)NC(=O)[C@H](CCC(=O)O)NC(=O)[C@H](C)NC(=O)[C@H](CC(C)C)NC(=O)[C@H](CCCNC(=N)N)NC(=O)[C@H](CCC(N)=O)NC(=O)[C@@H](NC(=O)[C@H](C)NC(=O)[C@@H]1CSSC[C@H](NC(=O)[C@H](CCCCN)NC(=O)CC[C@H](NC(=O)CCCCCCCCCCCCCCCCCCC(=O)O)C(=O)O)C(=O)N[C@@H](CC(N)=O)C(=O)N[C@@H]([C@@H](C)O)C(=O)N[C@@H](C)C(=O)N[C@@H]([C@@H](C)O)C(=O)N1)[C@@H](C)O)C(C)C)C(=O)N[C@@H](CC(C)C)C(=O)N1CCC[C@H]1C(=O)N1CCC[C@H]1C(=O)N[C@H](C(=O)N[C@@H](CC(N)=O)C(=O)N[C@H](C(=O)NCC(=O)N[C@@H](CO)C(=O)N[C@@H](CC(N)=O)C(=O)N[C@H](C(=O)N1CCC[C@H]1C(N)=O)[C@@H](C)O)C(C)C)[C@@H](C)O [Example 86, N-alpha-[(S)-4-Carboxy-4-(19-carboxynonadecanoylamino)butyryl]-[Glu14,Pro37]-pramlintide] ({C20 diacid-γGlu}-KCNTATCATQRLAEFLVHSSNNFGPILPPTNVGSNTP-NH2; disulfide 2-7 (inferred); C-terminus assumed) |
| 0.097 | 0.103 | > 200 | > 200 | > 200 | > 200 | > 200 | > 200 | > 200 | > 200 | > 200 | >45 | >45 |  | > 200 | > 200 | > 200 | > 200 | >45 | >45 | CC[C@H](C)[C@H](NC(=O)[C@@H]1CCCN1C(=O)CNC(=O)[C@H](Cc1ccccc1)NC(=O)[C@H](CC(N)=O)NC(=O)[C@H](CC(N)=O)NC(=O)[C@H](CO)NC(=O)[C@H](CO)NC(=O)[C@H](Cc1c[nH]cn1)NC(=O)[C@H](Cc1c[nH]cn1)NC(=O)[C@H](CC(C)C)NC(=O)[C@H](Cc1ccccc1)NC(=O)[C@H](CCC(=O)O)NC(=O)[C@H](C)NC(=O)[C@H](CC(C)C)NC(=O)[C@H](CCCNC(=N)N)NC(=O)[C@H](CCC(N)=O)NC(=O)[C@@H](NC(=O)[C@H](C)NC(=O)[C@@H]1CSSC[C@H](NC(=O)[C@H](CCCCN)NC(=O)CC[C@H](NC(=O)CCCCCCCCCCCCCCCCCCC(=O)O)C(=O)O)C(=O)N[C@@H](CC(N)=O)C(=O)N[C@@H]([C@@H](C)O)C(=O)N[C@@H](C)C(=O)N[C@@H]([C@@H](C)O)C(=O)N1)[C@@H](C)O)C(=O)N[C@@H](CC(C)C)C(=O)N1CCC[C@H]1C(=O)N1CCC[C@H]1C(=O)N[C@H](C(=O)N[C@@H](CC(N)=O)C(=O)N[C@H](C(=O)NCC(=O)N[C@@H](CO)C(=O)N[C@@H](CCC(N)=O)C(=O)N[C@H](C(=O)N1CCC[C@H]1C(N)=O)[C@@H](C)O)C(C)C)[C@@H](C)O [Example 135, N-alpha-[(S)-4-Carboxy-4-(19-carboxynonadecanoylamino)butyryl]-[Glu14,His17,Gln35,Pro37]-pramlintide] ({C20 diacid-γGlu}-KCNTATCATQRLAEFLHHSSNNFGPILPPTNVGSQTP-NH2; disulfide 2-7 (inferred)) |
